Activity calls are given as the source filed them. The rule behind the calls is not given here.

In this assay the target is transactivating tegument protein VP16 (Human herpesvirus 1), as a GAL4-VP16 activation-domain luciferase reporter. Put plainly: GAL4-VP16 reporter repression curves – cell-based, luminescence, high throughput, SRC3 series, counter-screen for SRC3 inhibitor project, dose response (AID 602167). The note with it: VP16 transactivation luciferase reporter cells. A general note: The purpose of a counterscreen is to sort out artefacts and off-target activity.

Turning to `O=C(N/N=C\c1ccc([N+](=O)[O-])o1)C1COc2ccccc2O1` (stereo not drawn), the IC50 entry was “inactive”.

In the case of `Cc1cccc(CN2CCN(C(=O)CCl)CC2)c1`, the IC50 is > 12 µM (inactive).

Regarding `Cc1ccc(/C=C2\SC(=S)N(CCCC(=O)NC3CCCC3)C2=O)cc1`, the IC50 is 4.58 µM.

In the case of `Cc1ccc(N(CCC#N)C(=O)CCl)cc1C`, the IC50 was > 12 µM (inactive).

Take `CC(=O)OCCN1c2ccccc2Sc2cnccc21`: the IC50 was 6.3 µM.

On to `CCOC(=O)C(=CNc1ccc(NC2=NCC(C)S2)cc1)C(=O)OCC` (stereo not drawn), for which the IC50 result is “inactive”.

Turning to `CCOc1ccc(/C=C2\SC(=S)N(CCCC(=O)NCCCN3CCOCC3)C2=O)cc1`, the IC50 entry was “inactive”.

Turning to `CN1CCN(c2ccc(NC(=O)N3CCc4ccccc43)cc2)CC1`, the IC50 entry is “inactive”.

Turning to `C(=Cc1cnc2ccccc2n1)c1ccc2c(c1)OCO2`, the IC50 entry was “inactive”.

For the molecule `COc1cccc(NC(=O)CSc2nnc(-c3cc(C)n(-c4ccccc4)c3C)o2)c1`, the IC50 was 2.4 µM.

Regarding `CC(=O)Nc1ccc(SCC(=O)c2cc(C)n(-c3ccccc3F)c2C)cc1`, the IC50 was > 12 µM (inactive).

For `CCOC(=O)c1cc2sccc2n1CC(=O)N1CCc2ccccc21`, the IC50 is > 35.9 µM (inactive).

Regarding `CC(C)(C)C(=O)Nc1ccc(N=Nc2ccccc2)cc1`, the IC50 was > 35.9 µM (inactive).

As to `COc1ccc(C(C(=O)NC2CCCCC2)N(C(=O)CCl)c2ccc(Cl)cc2)cc1` (stereo not drawn), the IC50 was 5.27 µM.

For `CC(=O)Nc1ccc(SCC(=O)c2cc(C)n(-c3ccccc3)c2C)cc1`, the IC50 is > 35.9 µM (inactive).

In the case of `Cc1ccc(OCC(=O)c2cc(C)n(-c3ccccc3)c2C)c([N+](=O)[O-])n1`, the IC50 result is “inactive”.

Take `COc1ccc(CCNC(=O)c2nnn(-c3ccc4c(c3)OCCO4)c2N)cc1OC`: the IC50 entry was “inactive”.

`CCOC(=O)CC(=O)CSc1nccc(-c2cccnc2)n1`: the IC50 entry is “inactive”.

For the molecule `Cc1ccc(C(=O)Nc2cnc3ccccc3c2)cc1`, the IC50 was 8.49 µM.

For `Cc1ccc(N=c2c([N+](=O)[O-])nn(-c3ccc4c(c3)OCCO4)n2O)cc1F`, the IC50 entry was “inactive”.

For the molecule `CCCC(=O)NC(c1ccc(Cl)cc1Cl)c1ccc2cccnc2c1O` (stereo not drawn), the IC50 was 4.42 µM.

In the case of `Nc1nccc(-c2ccc(-n3cnc4ccccc43)cc2)n1`, the IC50 is 7.5 µM.

Consider `C/C(=N\NC(=S)Nc1cc(S(=O)(=O)N2CCOCC2)ccc1Cl)c1ccccc1F`, for which the IC50 entry was “inactive”.

On to `C=CS(=O)(=O)N(Cc1ccc(Cl)c(Cl)c1)C[C@@H](O)CO`, for which the IC50 entry was “inactive”.

With `CO[C@@]12[C@@H]3N[C@@H]3CN1C1=C(C(=O)C(N)=C(C)C1=O)[C@@H]2COC(N)=O`, the IC50 was > 35.8 µM (inactive).

Regarding `Clc1ccc(-c2csc3ncnc(NCCN4CCOCC4)c23)cc1`, the IC50 was 8.01 µM.

For the molecule `c1csc(Cc2nn3c(-c4ccncc4)nnc3s2)c1`, the IC50 result was “inactive”.

`Cc1nc(N2CCC(C(N)=O)CC2)c2c(-c3cccs3)csc2n1`: the IC50 entry was “inactive”.

On to `Cc1ncc(CO)c(/C=N/NC(=O)c2cc3c(s2)CCCC3)c1O`, for which the IC50 is 6.04 µM.

`Cc1c(CC(=O)NCCCC(=O)O)c(=O)oc2cc3c(cc12)CCC(C)(C)O3`: the IC50 result is “inactive”.

On to `Cc1ccc(-n2c(Cl)c(Cl)nc(Cl)c2=O)cc1`, for which the IC50 was 4.07 µM.

Regarding `CCC(=O)c1ccc(O)c(CC=C(C)C)c1`, the IC50 was 9.84 µM.

On to `O=C(CCl)N(c1ccccc1)C1CCS(=O)(=O)C1` (stereo not drawn), for which the IC50 result was “inactive”.

By IC50 is commonly meant the concentration that gives 50% inhibition.

The values are drawn from PubChem BioAssay AID602167 (The Scripps Research Institute Molecular Screening Center, 2012).
